# Results from patent US10420831B2, “Inactivation of viruses by delipidation” (priority 2016, dated 2019).
# System: human influenza virus H1N1 A/WSN/33 strain
# Assay: Hemagglutination (HA) activity of treated IFV with chicken red blood cells
# Settings: 50 mM MBCD
# Protocol: Hemagglutination (HA) activity is determined as follows. Freshly isolated chicken blood is washed three times with PBS, and the red blood cells (RBC) are resuspended in PBS at a concentration of 1%. Virus dilutions (50 μL) are made in PBS and mixed with 50 μL of the RBC suspension. The mixture is added to individual wells in a 96-well plate and the RBC are allowed to settle for 45 minutes. The wells are judged to be HA negative (i.e. no agglutination of RBC) if a dot or pellet of RBC is present, and a well is judged to be positive if a smooth suspension of RBC is present.
# In addition to MBCD, another lipid solvent, diisopropyl ether (DIPE) is used to delipidate IFV. […] After a brief centrifugation at 2,000×g for 3 minutes, visible solvent is removed, and the aqueous materials are left to dry in a fume hood for 20 minutes. The samples are then centrifuged at 200,000×g for 30 minutes to recover virus particles.
substance,measurement,setting,value
methyl β-cyclodextrin [MBCD],HA units,"37° C., 30 minutes",32 HA units
same,effect on HA activity (in words),"37° C., 30 minutes",same degree as 2%-8% DIPE
same,effect on HA activity (in words),45 minutes,not measurably affected
same,HA units,end-over-end rotation at 37° C. for 45 minutes,32 HA units
